According to patent US8481597B2, “Use of (-) (3-trihalomethylphenoxy) (4-halophenyl) acetic acid derivatives for treatment of insulin resistance, type 2 diabetes, hyperlipidemia and hyperuricemia” (Metabolex, Inc., priority 1999, dated 2013):
“Also recorded” adds a separate entry of the source.

Assays:
[1] = system: oxonic acid induced hyperuricemic rats; test: Plasma uric acid in oxonic acid induced hyperuricemic rats (Example 17); format: in vivo, SD rats; details: oral 50 mg/kg for 3 days, 100 mg/kg on the 4th day; blood 6 hours post gavage on day 4
From the text: Male SD rats, weight 275-300 g were purchased from Charles River. […] To establish a hyperuricemic state, animals were put on a diet containing 2.5% (w/w) of oxonic acid (Sigma Chemical Co, St. Louis, Mo., USA) throughout the experiment. Oxonic acid elevates plasma uric acid by inhibiting uricase. Rats were screened for plasma uric acid levels 3 days after they were placed on the diet, and those that had extreme plasma uric acid levels were excluded. Rats were assigned to one of three groups and the mean uric acid levels were equivalent in each group. […] Oxonic acid was delivered in a liquid formulation containing 0.9% (w/v) methylcellulose. The gavage and injection volumes were 5 ml/kg. Blood samples were taken at 6 hours post oral gavage on day 4. Plasma uric acid levels were determined colorimetrically using the Infinity Uric Acid Reagent (Sigma Chemical Co, St. Louis, Mo., USA).

Zucker fa/fa rats = test: Short insulin tolerance test in Zucker fatty rats (Example 10); format: in vivo; details: 50 mg/kg/day oral for 5 days
Protocol: Prior to treatment, rats were assigned to 6 groups based on body weight. Each treatment group consisted of 8 rats. […] The gavage volume was 10 ml/kg. All rats received an oral glucose challenge (1.9 g/kg) 5.5 hours after the treatment and 4 hours after withdrawal of the food. Blood samples were taken at 0, 15, 30, 60, 90, 120, and 180 minutes following the glucose challenge for plasma glucose measurement. […] On day 5, rats received the intravenous insulin (0.75 U/kg) 5.5 hours after the last dose and 4 hours after withdrawal of the food. Blood samples were taken at 3, 6, 9, 12, 15 and 18 minutes following the insulin injection for plasma glucose measurement.

CC(=O)NCCOC(=O)C(Oc1cccc(C(F)(F)F)c1)c1ccc(Cl)cc1 (single isomer, unassigned; (-)) [(−) halofenate, (−) 2-acetamidoethyl 4-chlorophenyl-(3-trifluoromethylphenoxy)acetate]
plasma uric acid levels, in words [1]: significantly reduced plasma uric acid levels | insulin sensitivity (slope of decline in glucose after i.v. insulin), in words (Zucker fa/fa rats): improved significantly; also recorded: significantly more insulin sensitive
